Series [1] deals with Du145 human prostate cancer cells. The series is described as follows: Long-term growth curve with repeated electroporation, Du145. The format is cell-based. The following applies: 1.6 μM miRNA electroporated, repeated on days 7 and 14, day 20. Here is the method:
The inventors assessed the therapeutic effect of hsa-miR-15a for prostate cancer by using the Du145 human prostate cancer cell line, derived from a brain metastasis (Stone et al., 1978). The inventors conducted growth curve experiments in the presence of miRNA for up to 20 days. Since in vitro transfections of naked interfering RNAs, such as synthetic miRNA, are transient by nature and compromised by the dilution of the miRNA during ongoing cell divisions, miRNA was administered at multiple time points (Bartlett et al., 2006; Bartlett et al., 2007). To accommodate miRNA delivery into a large quantity of cells, the inventors employed the electroporation method for delivery of hsa-miR-15a or negative control miRNA into Du145 human prostate cancer cells. Briefly, 0.5×10^6 Du145 cells were electroporated with 1.6 μM hsa-miR-15a or negative control using the BioRad Gene Pulser Xcell™ instrument (BioRad Laboratories Inc., Hercules, Calif., USA), seeded and propagated in regular growth medium. Experiments were carried out in triplicates. When the control cells reached confluence (days 7 and 14), cells were harvested, counted and electroporated again with the respective miRNAs. To ensure similar treatment of both conditions as well as to accommodate exponential growth, the cell numbers used for the second and third electroporation were titrated down to the lowest count. The population doubling was calculated from these electroporation events using the formula PD=ln(Nf/N0)/ln2 and adjusting for the fact that approximately 72% of newly seeded cells adhere to the plate. Cell counts were extrapolated and plotted on a linear scale (FIG. 10). Arrows represent electroporation days. Standard deviations are included in the graphs.
To evaluate the therapeutic activity of hsa-miR-147 over an extended period of time, the inventors conducted growth curve experiments in the presence of miRNA for up to 21 days. Since in vitro transfections of naked interfering RNAs, such as synthetic miRNA, are transient by nature and compromised by the dilution of the oligo during ongoing cell divisions, miRNA was administered at multiple time points (Bartlett et al., 2006; Bartlett et al., 2007). To accommodate miRNA delivery into a large quantity of cells, the inventors employed the electroporation method to delivery hsa-miR-147 or negative control miRNA into PC3 and Du145 human prostate cancer cells. […] When the control cells reached confluence (days 7 and 14), cells were harvested, counted and electroporated again with the respective miRNAs. […] The population doubling was calculated from these electroporation events using the formula PD=ln(Nf/N0)/ln2 and adjusting for the fact that approximately 72% of newly seeded cells adhere to the plate. […]

The subject of the next series is Du145 cells. Briefly: Alamar Blue proliferation assay, Du145. The class given is cell-based, human. The note with it: 30 nM, normalized to negative control miRNA (100% proliferation). The source says:
(§1) The inventors assessed the therapeutic effect of hsa-miR-147 for prostate cancer by using 4 individual human prostate cancer cell lines. To measure cellular proliferation of prostate cancer cells, the following prostate cancer cell lines were used: PPC-1 and PC3, derived from a bone metastasis; Du145, derived from a brain metastasis; RWPE2, derived from prostate cells immortalized by human papillomavirus 18 and transformed by the K-RAS oncogene (Bello et al., 1997; Stone et al., 1978; Brothman et al., 1991). PC3, PPC-1, and Du145 cells lack expression of the prostate-specific antigen (PSA) and are independent of androgen receptor (AR) signaling. In contrast, RWPE2 cells test positive for PSA and AR.
(§2) PPC-1, Du145 and RWPE2 cells were transfected with synthetic hsa-miR-147 (Pre-miR™-hsa-miR-147, Ambion cat. no. AM17100) or negative control miRNA (NC; Pre-miR™ microRNA Precursor Molecule-Negative Control #2; Ambion cat. no. AM17111) in a 96-well format using a lipid-based transfection reagent. […] Proliferation was assessed 4-7 days post-transfection using Alamar Blue™ (Invitrogen) following the manufacturer's instructions. […] Fluorescent light units (FLU) were measured after 3 hours, normalized to the control, and plotted as percent change in proliferation. […]

The subject of a further series is RWPE2 cells. The series is described as follows: Alamar Blue proliferation assay, RWPE2. The class given is cell-based, human. The note with it: 30 nM, normalized to negative control miRNA (100% proliferation).
Excerpt: as §1, §2

As for “hsa-miR-147: Synthetic pre-miR-147 (Ambion AM17100; Dharmacon in vivo); mature sequence GUGUGUGGAAAUGCUUCUGC, MIMAT0000251, SEQ ID NO:114 (synthetic pre-miR (Ambion/Dharmacon), chemistry not given here; listed as Homo sapiens)”, the “cells relative to cells electroporated with negative control miRNA” value in series [1] came out at 2.90%. For the same substance, the “inhibition of Du145 cell growth” value in series [1] (relative to proliferation of control cells (100%)) amounted to 97.1%. The “% proliferation” value in the series with Du145 cells is 61.50%; in the series with RWPE2 cells, 79.08%.

The record behind these values is US20090131356A1, “miR-15, miR-26, miR-31, miR-145, miR-147, miR-188, miR-215, miR-216, miR-331, mmu-miR-292-3P REGULATED GENES AND PATHWAYS AS TARGETS FOR THERAPEUTIC INTERVENTION” (ASURAGEN, INC., priority 2006, published 2009).
